From patent US6890940B2, “Bis(2-aryl-5-pyridyl) derivatives” (Kowa Co., Ltd., priority 2001, dated 2005) come the findings set out here.

The term pIC50 denotes −log10 of the IC50, conventionally taken in molar units.

Data set [1] concerns IgE antibody production. As to the kind of experiment: Evaluation of IgE antibody production inhibiting activity (mouse spleen B cells stimulated with LPS and IL-4, IgE in supernatant by ELISA). Conditions: B-cell; mouse (Balb/C) spleen B cells, LPS + mouse IL-4, drug added Day 1, IgE in culture supernatant by ELISA. The format is cell-based. As for the experimental part:
Test 1 (Evaluation of IgE Antibody Production Inhibiting Activity)
From a mouse (Balb/C, male, 8 weeks old), the spleen was enucleated. The spleen was shredded in 10% FBS/RPMI 1640, and was then disintegrated into single cells through a 70-mesh screen. Those single cells were hemolyzed with Gey's solution, and using RPMI 1640 medium/25 mM HEPES/0.3% BSA, a spleen cell suspension (1×10^7 cells/mL) was prepared. After an aliquot of the suspension was reacted with a rat anti-mouse Thy-1.2 monoclonal antibody (product of Cedarlane Laboratories Limited) at 4° C. for 1 hour, centrifugation was conducted. Precipitated cells were suspended again (1×10^7 cells/mL, RPMI/HEPES/BSA). After the suspension was next reacted with a low-cytotoxic rabbit complement (product of Cedarlane Laboratories Limited) at 37° C. for 1 hour, dead cells were removed by specific gravity centrifugation using Lympholyte M (product of Cedarlane Laboratories Limited) so that a B cell fraction was obtained as viable cells. […]
The IgE antibody production inhibiting activity of each drug was calculated by adding the drug Day 1 of the incubation and assaying the quantity of IgE in the culture supernatant by ELISA after the incubation.
On the technique in general: In an ELISA, binding on a coated surface is turned into a signal by an enzyme label.

A short description of data set [2]: Solubility of each compound in water. In kind it is physicochemical. The text has this:
Further, the solubility (%) of each compound in water was also estimated.

Data set [3] is described as follows: Solubility of each compound in water. The format is physicochemical. The settings on record: in 1M hydrochloric acid (footnote *).

pIC50: −log10 of the molar value. Where a name gives a salt, the structure may show the parent alone. Read-outs that look alike come from different tables or passages of the source. Marks after values point to notes of the source that are not given here.

`COc1cc(-c2ccc(N(C)CCN(C)c3ccc(-c4cc(OC)c(OC)c(OC)c4)nc3)cn2)cc(OC)c1OC` [Example 7, N,N′-Bis[2-(3,4,5-trimethoxyphenyl)-5-pyridyl]-N,N′-dimethylethylenediamine dimethanesulfonate]: the pIC50 in data set [1] was 7.40. This molecule also had a Solubility in data set [2] of 5%.

Take `COc1cc(-c2ccc(N3CCN(c4ccc(-c5cc(OC)c(OC)c(OC)c5)nc4)C(CN(C)C)C3)cn2)cc(OC)c1OC` (stereo not drawn) [Example 47, 2-(Dimethylamino)methyl-1,4-bis[2-(,3,4,5-trimethoxyphenyl)-5-pyridyl]piperazine trihydrochloride]: the pIC50 in data set [1] was 7.30. The molecule also yielded a Solubility in data set [2] of 0.1%.

`COc1cc(-c2ccc(N3CCCN(c4ccc(-c5cc(OC)c(OC)c(OC)c5)nc4)CC3)cn2)cc(OC)c1OC` [Example 30, 1,4-Bis[2-(3,4,5-trimethoxyphenyl)-5-pyridyl]hexahydro-1,4-diazepine dimethanesulfonate]: the negative logarithm of the IC50 (pIC50) in data set [1] was 7.00. The same molecule showed a Solubility in data set [2] of 0.1%.

For the molecule `COc1cc(-c2ccc(N(C)CCCN(C)c3ccc(-c4cc(OC)c(OC)c(OC)c4)nc3)cn2)cc(OC)c1OC` [Example 37, N,N′-Bis[2-(3,4,5-trimethoxyphenyl)-5-pyridyl]-N,N′-dimethyl-1,3-propanediamine dimethanesulfonate], the negative-log IC50 (pIC50) in data set [1] is 7.00. In addition, the Solubility in data set [2] came out at 10%.

`COc1cc(-c2ccc(N(C)CCCN(C)CCCN(C)c3ccc(-c4cc(OC)c(OCC(F)(F)F)c(OC)c4)nc3)cn2)cc(OC)c1OCC(F)(F)F` [Example 57, N,N-Bis[N-[2-(3,5-dimethoxy-4-(2,2,2-trifluoroethoxy)phenyl]-5-pyridyl]-N-methyl-3-aminopropyl]methylamine trihydrochloride]: in data set [1], the negative-log IC50 (pIC50) is 7.00. Moreover, in data set [2], the Solubility is on record as 1%.

For the molecule `COc1cc(-c2ccc(N(C)CC(C)(C)CN(C)c3ccc(-c4cc(OC)c(OC)c(OC)c4)nc3)cn2)cc(OC)c1OC` [Example 39, N,N′-Bis[2-(3,4,5-trimethoxyphenyl)-5-pyridyl]-N,N′,2,2-tetramethyl-1,3-propanediamine dimethanesulfonate], the negative logarithm of the IC50 (pIC50) in data set [1] is 7.10. The Solubility in data set [2] was found to be 10%.

Take `COc1cc(-c2ccc(N(C)CC(O)CN(C)c3ccc(-c4cc(OC)c(OC)c(OC)c4)nc3)cn2)cc(OC)c1OC` [Example 41, 2-hydroxy-N,N′-bis[2-(3,4,5-trimethoxyphenyl)-5-pyridyl]-N,N′-dimethyl-1,3-propanediamine]: the pIC50 in data set [1] is 7.30. Besides, the Solubility in data set [3] is reported as 0.1* %.

For the molecule `COc1cc(-c2ccc(NCCOCCNc3ccc(-c4cc(OC)c(OC)c(OC)c4)nc3)cn2)cc(OC)c1OC` [Example 44, Bis[N-[2-(3,4,5-trimethoxyphenyl)-5-pyridyl]-2-aminoethyl]ether dimethanesulfonate], the pIC50 in data set [1] was 7.00. In addition, the Solubility in data set [2] amounted to 10%.

Regarding `COc1cc(-c2ccc(N(C)CCCN(C)CCCN(C)c3ccc(-c4cc(OC)c(OC)c(OC)c4)nc3)cn2)cc(OC)c1OC` [Example 43, N,N-Bis[N-[2-(3,4,5-trimethoxyphenyl)-5-pyridyl]-N-methyl-3-aminopropyl]methylamine], the pIC50 in data set [1] was 7.00. In addition, the Solubility in data set [3] was 10* %.

For the molecule `CCN(CCN(CC)c1ccc(-c2cc(OC)c(OC)c(OC)c2)nc1)c1ccc(-c2cc(OC)c(OC)c(OC)c2)nc1` [Example 36, N,N′-Bis[2-(3,4,5-trimethoxyphenyl)-5-pyridyl]-N,N′-diethylethylenediamine dimethanesulfonate], the pIC50 in data set [1] was 7.52. Moreover, in data set [2], the Solubility stood at 10%.

For `COc1cc(-c2ccc(N(C)CCN(C)CCN(C)c3ccc(-c4cc(OC)c(OC)c(OC)c4)nc3)cn2)cc(OC)c1OC` [Example 42, N,N-Bis[N-[2-(3,4,5-trimethoxyphenyl)-5-pyridyl]-N-methyl-2-aminoethyl]methylamine trihydrochloride.], the pIC50 in data set [1] is 7.00. This molecule returned a Solubility in data set [2] of 10%.

For `COc1cc(-c2ccc(N(C)CCN(C)c3ccc(-c4cc(OC)c(O)c(OC)c4)nc3)cn2)cc(OC)c1O` [Example 14, N,N′-Bis[2-(4-hydroxy-3,5-dimethoxyphenyl)-5-pyridyl]-N,N′-dimethylethylenediamine dimethanesulfonate], the negative logarithm of the IC50 (pIC50) in data set [1] is 7.40. The molecule further gave a Solubility in data set [2] of 0.1%.
